Experimental data reported in patent publication US10858360B2, “Tricyclic gyrase inhibitors” (priority 2011, dated 2020).
In brackets after ≈: the same amount, converted by molar mass.

Experiments:
S. aureus ATCC 13709 = assay: MIC, S. aureus ATCC 13709 (Alamar Blue broth microdilution); assay type: cell-based; conditions: Alamar Blue read after overnight incubation at 35° C.; for MIC: Staphylococcus aureus, ATCC13709, S. aureus; for MIC Sa: S. aureus
E. coli ATCC 25922 = assay: MIC, E. coli ATCC 25922; assay type: cell-based; conditions: Alamar Blue read after overnight incubation at 35° C.; for MIC: Escherichia coli, ATCC25922, E. coli; for MIC Ec: E. coli

Structure (SMILES) | MIC (S. aureus ATCC 13709) | MIC (E. coli ATCC 25922) | MIC Sa (S. aureus ATCC 13709) | MIC Ec (E. coli ATCC 25922)
CNc1cc(F)cc2c1[nH]c1nc(Oc3cnc(CO)nc3)nc(N3C[C@@H]4C[C@H]3C[C@@H]4N)c12 [4.391] | ≤ 0.5 µg/mL | ≤ 0.5 µg/mL | – | –
CNc1cc(F)cc2c1[nH]c1nc(Oc3cncc(Br)c3)nc(N3CC4CC3CC4N)c12 (stereo not shown) [4.284] | – | – | ≤0.5 µg/mL | ≤0.5 µg/mL
CNc1cccc2c1[nH]c1nc(Oc3cncc(F)c3)nc(N3CC(N)C4(CC4)C3)c12 (stereo not shown) [3.50] | ≤ 0.5 µg/mL | 2 µg/mL (≈ 4.77 µM) | – | –
CNc1cc(F)cc2c1[nH]c1nc(Oc3cnc(SC)nc3)nc(N3CC4CCNC4C3)c12 (stereo not shown) [4.198] | ≤ 0.5 µg/mL | ≤ 0.5 µg/mL | – | –
CNc1ncnc2c1[nH]c1nc(Oc3cnc(C)nc3)nc(N3CCC4(CC4N)C3)c12 (stereo not shown) [7.09] | 8 µg/mL (≈ 19.1 µM) | > 64 µg/mL | – | –
CNc1cccc2c1[nH]c1nc(Oc3cncc(C#N)c3)nc(N3CCC4(CC4N)C3)c12 (stereo not shown) [3.40] | ≤ 0.5 µg/mL | 1 µg/mL (≈ 2.34 µM) | – | –
CNc1cccc2c1[nH]c1nc(Sc3cncc(S(=O)(=O)NC)c3)nc(N3CC4C(N)C4C3)c12 (stereo not shown) [1.36] | 2 µg/mL (≈ 4.03 µM) | 4 µg/mL (≈ 8.05 µM) | – | –
CNc1cc(F)cc2c1[nH]c1nc(Oc3cnc(CC(=O)NOC)nc3)nc(N3CC(N)C4(CC4)C3)c12 (stereo not shown) [4.371] | – | – | 1 µg/mL (≈ 1.97 µM) | 16 µg/mL (≈ 31.5 µM)
CNc1cccc2c1[nH]c1nc(Oc3cncnc3)nc(N3CCC(N)CC3)c12 [3.64] | 16 µg/mL (≈ 41 µM) | 64 µg/mL (≈ 164 µM) | – | –
CNc1cc(F)cc2c1[nH]c1nc(Oc3cnc(SC)nc3)nc(N3CC4C[C@@H](N)C4C3)c12 (stereo partly shown) [4.201] | ≤ 0.5 µg/mL | ≤ 0.5 µg/mL | – | –
CNc1cc(F)cc2c1[nH]c1nc(Oc3cnc(C)nc3)nc(N3CC(N)C(C(=O)N4CCOCC4)C3)c12 (stereo not shown) [4.438] | 1 µg/mL (≈ 1.92 µM) | 16 µg/mL (≈ 30.7 µM) | – | –
CNc1cc(F)cc2c1[nH]c1nc(Oc3cnc(N4CCN(C(C)=O)CC4)nc3)nc(N3CCC(N)C3)c12 (stereo not shown) [4.229] | – | – | ≤0.5 µg/mL | 2 µg/mL (≈ 3.84 µM)
CNc1cc(F)cc2c1[nH]c1nc(Oc3cnc(C)nc3)nc(N3CCC(C4(N)CC4)C3)c12 (stereo not shown) [4.083] | – | – | ≤0.5 µg/mL | ≤0.5 µg/mL
CNc1cc(F)cc2c1[nH]c1nc(Oc3cnc(C)nc3)nc(N3CCC4(CC3)NC(=O)NC4=O)c12 [4.107] | – | – | >16 µg/mL | >16 µg/mL
CNc1cc(F)cc2c1[nH]c1nc(Oc3cnc(C(C)(C)C)nc3)nc(N3C[C@H](N)C4(CC4)C3)c12 [4.315] | ≤ 0.5 µg/mL | ≤ 0.5 µg/mL | – | –
CNc1cc(F)cc2c1[nH]c1nc(Oc3cnc4cccnc4c3)nc(N3CC4CC4(N)C3)c12 (stereo not shown) [4.036] | ≤ 0.5 µg/mL | ≤ 0.5 µg/mL | – | –

Structure (SMILES) | MIC (S. aureus ATCC 13709) | MIC (E. coli ATCC 25922) | MIC Sa (S. aureus ATCC 13709) | MIC Ec (E. coli ATCC 25922)
CNNc1cc(F)cc2c1[nH]c1nc(Oc3cnc(C)nc3)nc(N3CC4C(N)C4C3)c12 (stereo not shown) [2.1] | – | – | ≤0.5 µg/mL | >16 µg/mL
CNc1ncnc2c1[nH]c1nc(Oc3cncc(F)c3)nc(N3CC(N)C4(CC4)C3)c12 (stereo not shown) [7.06] | 8 µg/mL (≈ 19 µM) | 64 µg/mL (≈ 152 µM) | – | –
CNc1cc(F)cc2c1[nH]c1nc(Oc3cnc(C)nc3)nc(N3CCNC4(CC4)C3)c12 [4.132] | – | – | ≤0.5 µg/mL | 2 µg/mL (≈ 4.6 µM)
CNc1cc(F)c(F)c2c1[nH]c1nc(Oc3cnc(C)nc3)nc(N3CCC4(CC4N)C3)c12 (stereo not shown) [5.02] | – | – | ≤0.5 µg/mL | ≤0.5 µg/mL
CNc1cc(F)cc2c1[nH]c1nc(Oc3cncnc3)nc(N3CC(C)C(CN)C3)c12 (stereo not shown) [4.023] | – | – | ≤0.5 µg/mL | 1 µg/mL (≈ 2.37 µM)
CNc1cc(F)cc2c1[nH]c1nc(Oc3cnc(N)nc3)nc(N3C[C@H]4CC3C[C@H]4N)c12 [4.191] | ≤ 0.5 µg/mL | 2 µg/mL (≈ 4.59 µM) | – | –
CNc1cc(F)cc2c1[nH]c1nc(Oc3cnc(N)nc3)nc(N3C[C@H]4CCN[C@H]4C3)c12 [4.187] | ≤ 0.5 µg/mL | 2 µg/mL (≈ 4.59 µM) | – | –
CNc1cc(F)cc2c1[nH]c1nc(Oc3cnc(C)nc3)nc(N3CCC(N)C(C)(C)C3)c12 (stereo not shown) [4.152] | ≤ 0.5 µg/mL | 1 µg/mL (≈ 2.22 µM) | – | –
CNc1cc(F)cc2c1[nH]c1nc(Oc3cncc(F)c3)nc(N3CC4C(N)C4C3)c12 (stereo not shown) [4.055] | ≤ 0.5 µg/mL | ≤ 0.5 µg/mL | – | –
CNc1cc(F)cc2c1[nH]c1nc(Oc3cnc(C#N)c(C)c3)nc(N3CC4(CC[C@H]4N)C3)c12 [4.326] | ≤ 0.5 µg/mL | ≤ 0.5 µg/mL | – | –
CNc1cc(F)cc2c1[nH]c1nc(Oc3cnc(COC)nc3)nc(N3CC(N)C4(CC4)C3)c12 (stereo not shown) [4.343] | – | – | ≤0.5 µg/mL | ≤0.5 µg/mL
CNc1cc(F)cc2c1[nH]c1nc(Oc3cncc(-c4nnnn4C)c3)nc(N3CC4C(N)C4C3)c12 (stereo not shown) [4.168] | ≤ 0.5 µg/mL | 2 µg/mL (≈ 4.1 µM) | – | –
Cc1cc(F)cc2c1[nH]c1nc(Oc3cncnc3)nc(N3CC4C(N)C4C3)c12 (stereo not shown) [2.7] | 4 µg/mL (≈ 10.2 µM) | > 16 µg/mL | – | –
CNc1cc(F)cc2c1[nH]c1nc(Oc3cnc(SC)nc3)nc(N3CC4C(CN)C4C3)c12 (stereo not shown) [4.197] | – | – | ≤0.5 µg/mL | ≤0.5 µg/mL
CNc1cccc2c1[nH]c1nc(Oc3cncnc3)nc(N3CCN(Cc4ccccn4)CC3)c12 [3.54] | 8 µg/mL (≈ 17.1 µM) | > 32 µg/mL | – | –
CNc1cc(F)cc2c1[nH]c1nc(Oc3cnc(C)nc3)nc(N3CC4(CCN4)C3)c12 [4.120] | – | – | ≤0.5 µg/mL | 1 µg/mL (≈ 2.38 µM)
